Experimental data published in paper PMC2747590 (Chemical biology & drug design, 2009).
Where two headings read alike, the source gives them in different places.

What was measured:
[1] = system: metastasis; settings: 50 mg/kg/day; cited from earlier work
[2] = in vitro; settings: male, Sprague-Dawley, rat, microsomes, pH 7.4
[3] = mice, single intraperitoneal dose at the same dose level (100 mg/kg); cited from earlier work
[4] = Plasma levels in mice after single intraperitoneal dose; settings: female, BALB/c, mouse, in vivo, ip, 100 mg/kg
[5] = mouse, in vivo, ip
[6] = in vivo; settings: female, BALB/c, mouse, ip
[7] = 14-day repeated dose toxicity study in mice; settings: 5, 10 and 25 mg/kg/day i.p. for 14 days; normal behavior and food consumption
[8] = system: gelatinases; settings: cited from earlier work

In the case of `O=S(=O)(CC1CS1)c1ccc(Oc2ccccc2)cc1` (stereo not drawn) [Compound 1, (4-phenoxyphenylsulfonyl)methylthiirane], the “efficacy in mouse models of metastasis” value [1] is given as “has shown efficacy”, the remaining at 0.25 h, 25 μM [2] is given as 0.5% and the “plasma levels at 1 h” value [3] is given as < 1 µM.

For `CS(=O)(=O)Oc1ccc(Oc2ccc(S(=O)(=O)CC3CS3)cc2)cc1` (stereo not drawn) [Compound 2, 4-(4-(Thiiranylmethylsulfonyl)phenoxy)-phenyl methanesulfonate], the concentration at 1 h [4] was 70.5 µM, the “Concentration of 2 at 1 h” value ([5]; female, BALB/c, 25 mg/kg/day, 1 h) was 3.2 µM and the “Concentration of 2 at 1 h” value ([5]; 5 mg/kg/day) was “LOQ”. The “Concentration of 2 at 1 h” value ([5]; 10 mg/kg/day) was “LOQ”, the concentration at 1 h ([6]; 5 mg/kg/day) was < 1 µM and the concentration at 1 h ([6]; 10 mg/kg/day) was < 1 µM. For the same compound, the concentration at 1 h ([6]; 25 mg/kg/day) was 3.2 µM and the “toxicity upon multiple-dose administration” value [7] was “No toxicity was observed”.

For `O=S(=O)(CC1CS1)c1ccc(Oc2ccc(O)cc2)cc1` (stereo not drawn) [p-hydroxy variant], the “gelatinase inhibitory activity relative to parent 1” value [8] is listed as “more active gelatinase inhibitor than the parent 1”.
